Experimental data taken from US9113629B2, “4-amino-6-(4-substituted-phenyl)-picolinates and 6-amino-2-(4-substituted-phenyl)-pyrimidine-4-carboxylates and their use as herbicides” (DOW AGROSCIENCES LLC, priority 2013, dated 2015).
Like-named read-outs stand apart in the source and are kept apart here.

How the values were obtained:
[1] = test system: Key Grass and Sedge Weeds as well as Grass Crops; test: Post-emergent Test II herbicidal activity (Table 6); format: in vivo; conditions: post-emergence, 336 h; for pest or weed control at 70 g/ha: 70 g ai/ha; for pest or weed control at 140 g/ha: 140 g ai/ha
Procedure, shortened: (§1)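 Compounds, dissolved in 97:3 acetone/DMSO and diluted into an aqueous carrier containing crop oil concentrate and Triton X-155, are applied over the top of young plants at 187 L/ha. Injury is scored visually at 14 d, 0% meaning no effect and 100% complete kill.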

[2] = test system: Key Broadleaf Weed and Crop Species; test: Post-emergent Test II herbicidal activity (Table 5); format: in vivo; conditions: post-emergence, 336 h, 14 days after application; for pest or weed control at 70 g/ha: application rate 70 g ai/ha; for pest or weed control at 140 g/ha: application rate 140 g ai/ha
Procedure, shortened: as §1

[3] = CYPES: yellow nutsedge (Cyperus esculentus), read-out: Visual Growth Reduction (%) 14 Days After Application, CYPES
[4] = DIGSA: crabgrass (Digitaria sanguinalis), read-out: Visual Growth Reduction (%) 14 Days After Application, DIGSA
[5] = ECHCG: barnyardgrass (Echinochloa crus-galli), read-out: Visual Growth Reduction (%) 14 Days After Application, ECHCG
[6] = ORYSA: rice (Oryza sativa), crop, read-out: Visual Growth Reduction (%) 14 Days After Application, ORYSA
[7] = SETFA: giant foxtail (Setaria faberi), read-out: Visual Growth Reduction (%) 14 Days After Application, SETFA
[8] = SORVU: grain sorghum (Sorghum vulgare), read-out: Visual Growth Reduction (%) 14 Days After Application, SORVU
[9] = TRZSS (wheat, Triticum aestivum), crop, read-out: Visual Growth Reduction (%) 14 Days After Application, TRZSS
[10] = ZEAMX: maize, corn (Zea mays), crop, read-out: Visual Growth Reduction (%) 14 Days After Application, ZEAMX
[11] = ABUTH: velvetleaf (Abutilon theophrasti), read-out: Visual Growth Reduction (%) 14 Days After Application, ABUTH
[12] = AMARE: redroot pigweed (Amaranthus retroflexus), read-out: Visual Growth Reduction (%) 14 Days After Application, AMARE
[13] = BRSNN: oilseed-rape, canola (Brassica napus), read-out: Visual Growth Reduction (%) 14 Days After Application, BRSNN
[14] = CHEAL: lambsquarters (Chenopodium album), read-out: Visual Growth Reduction (%) 14 Days After Application, CHEAL
[15] = EPHHL: wild poinsettia (Euphorbia heterophylla), read-out: Visual Growth Reduction (%) 14 Days After Application, EPHHL
[16] = HELAN: sunflower (Helianthus annuus), read-out: Visual Growth Reduction (%) 14 Days After Application, HELAN
[17] = VIOTR: wild pansy (Viola tricolor), read-out: Visual Growth Reduction (%) 14 Days After Application, VIOTR

SMILES | pest or weed control at 70 g/ha [1, 3] [%] | pest or weed control at 140 g/ha [1, 3] [%] | pest or weed control at 70 g/ha [1, 4] [%] | pest or weed control at 140 g/ha [1, 4] [%] | pest or weed control at 70 g/ha [1, 5] [%] | pest or weed control at 140 g/ha [1, 5] [%] | pest or weed control at 70 g/ha [1, 6] [%] | pest or weed control at 140 g/ha [1, 6] [%] | pest or weed control at 140 g/ha [1, 7] [%] | pest or weed control at 70 g/ha [1, 8] [%] | pest or weed control at 140 g/ha [1, 8] [%] | pest or weed control at 70 g/ha [1, 9] [%] | pest or weed control at 140 g/ha [1, 9] [%] | pest or weed control at 70 g/ha [1, 10] [%] | pest or weed control at 140 g/ha [1, 10] [%] | pest or weed control at 70 g/ha [2, 11] [%] | pest or weed control at 140 g/ha [2, 11] [%] | pest or weed control at 70 g/ha [2, 12] [%] | pest or weed control at 140 g/ha [2, 12] [%] | pest or weed control at 70 g/ha [2, 13] [%] | other results
COC(=O)c1nc(-c2ccc(Br)cc2F)c(F)c(N)c1Cl [Compound 52] | 95 to 100 | 95 to 100 | 85 to 94 | 85 to 94 | 60 to 74 | 75 to 84 | 0 to 29 | 0 to 29 | 85 to 94 | 95 to 100 | 95 to 100 | 30 to 44 | 30 to 44 | 95 to 100 | 95 to 100 | 95 to 100 | 95 to 100 | 95 to 100 | 95 to 100 | 95 to 100 | pest or weed control at 140 g/ha [2, 13]: 95 to 100%; pest or weed control at 70 g/ha [2, 14]: 95 to 100%; pest or weed control at 140 g/ha [2, 14]: 95 to 100%; pest or weed control at 70 g/ha [2, 15]: 95 to 100%; pest or weed control at 140 g/ha [2, 15]: 95 to 100%; pest or weed control at 70 g/ha [2, 16]: 95 to 100%; pest or weed control at 140 g/ha [2, 16]: 95 to 100%; pest or weed control at 70 g/ha [2, 17]: 95 to 100%; pest or weed control at 140 g/ha [2, 17]: 95 to 100%; melting point: 146 to 148 °C
C#Cc1ccc(-c2nc(N)c(OC)c(C(=O)OC)n2)c(F)c1F [Compound 84] | 0 to 29 | 0 to 29 | 0 to 29 | 0 to 29 | 0 to 29 | 0 to 29 | 0 to 29 | 0 to 29 | 0 to 29 | 0 to 29 | 0 to 29 | 0 to 29 | 0 to 29 | 0 to 29 | 0 to 29 | 0 to 29 | 0 to 29 | 0 to 29 | 0 to 29 | 0 to 29 | pest or weed control at 70 g/ha [1, 7]: 0 to 29%; pest or weed control at 140 g/ha [2, 13]: 0 to 29%; pest or weed control at 70 g/ha [2, 14]: 0 to 29%; pest or weed control at 140 g/ha [2, 14]: 0 to 29%; pest or weed control at 70 g/ha [2, 15]: 0 to 29%; pest or weed control at 140 g/ha [2, 15]: 0 to 29%; pest or weed control at 140 g/ha [2, 16]: 60 to 74%; pest or weed control at 70 g/ha [2, 17]: 0 to 29%; pest or weed control at 140 g/ha [2, 17]: 0 to 29%; melting point: 214 to 217 °C
